# In patent publication US5837868A, “Process for preparation of chiral 3-amino-pyrrolidine and analogous bicyclic compounds” (Abbott Laboratories, priority 1997, dated 1998):
# Counter-ions that a name gives are not always drawn. Like-named read-outs stand apart in the source and are kept apart here.
# How the values were obtained:
# P. aeruginosa K799/61 = assay: In vitro antibacterial activity, agar dilution MIC; format: cell-based; details: Pseudomonas aeruginosa, K799/61
# Procedure: (§1) Each plate was inoculated with 1:100 (or 1:10 for slow-growing strains, primarily Micrococcus and Streptococcus) dilutions of up to 32 different microorganisms, using a Steers replicator block calibrated to deliver approximately 10^4 colony forming units (CFUs). The inoculated plates were incubated at from about 35° C. to about 37° C. for approximately 20-24 hours. In addition, a control plate using BHI agar containing no test compound was prepared and incubated at the beginning and at the end of each test. The quinolone antibacterial ciprofloxacin was used as a control ("Cntl").
# (§2) The MIC was defined as the lowest concentration of test compound yielding no growth (a slight haze or sparsely isolated colonies at the inoculum spot) as compared to the growth control containing no test compound.
# [1] = tested on: Entero. faecium ATCC 8043; assay: In vitro antibacterial activity, agar dilution MIC; format: cell-based; details: Enterococcus faecium, ATCC8043
# Procedure: as §1, §2
# Strep. bovis A5169 = assay: In vitro antibacterial activity, agar dilution MIC; format: cell-based; details: Streptococcus equinus
# Procedure: as §1, §2
# [2] = tested on: Strep. pyogenes 2548 INDUC; assay: microbe, parasite or virus in culture; format: cell-based; details: Streptococcus pyogenes, 2548INDUC
# Procedure: as §1, §2
# E. coli SS = assay: In vitro antibacterial activity, agar dilution MIC; format: cell-based; details: Escherichia coli
# Procedure: as §1, §2
# [3] = tested on: Strep. pyogenes 930 CONST; assay: In vitro antibacterial activity, agar dilution MIC; format: cell-based; details: Streptococcus pyogenes
# Procedure: as §1, §2
# P. aeruginosa K799/WT = assay: In vitro antibacterial activity, agar dilution MIC; format: cell-based; details: Pseudomonas aeruginosa
# Procedure: as §1, §2
# M. luteus ATCC 4698 = assay: In vitro antibacterial activity, agar dilution MIC; format: cell-based; details: Micrococcus luteus, ATCC4698
# Procedure: as §1, §2
# Staph. aureus CMX 553 = assay: In vitro antibacterial activity, agar dilution MIC; format: cell-based; details: Staphylococcus aureus, CMX553
# Procedure: as §1, §2
# Staph. aureus A5177 = assay: In vitro antibacterial activity, agar dilution MIC; format: cell-based; details: Staphylococcus aureus
# Procedure: as §1, §2
# Pseudomonas cepacia 296I = assay: In vitro antibacterial activity, agar dilution MIC; format: cell-based; details: Burkholderia cepacia
# Procedure: as §1, §2
# Staph. aureus ATCC 6538P = assay: In vitro antibacterial activity, agar dilution MIC; format: cell-based; details: Staphylococcus aureus, ATCC6538P
# Procedure: as §1, §2
# [4] = tested on: Providencia stuartii CMX 640; assay: In vitro antibacterial activity, agar dilution MIC; format: cell-based; details: CMX640
# Procedure: as §1, §2
# E. coli KNK 437 = assay: In vitro antibacterial activity, agar dilution MIC; format: cell-based; details: Escherichia coli, KNK437
# Procedure: as §1, §2
# E. coli DC-2 = assay: In vitro antibacterial activity, agar dilution MIC; format: cell-based; details: Escherichia coli, DC2
# Procedure: as §1, §2
# Staph. aureus 5278 = assay: In vitro antibacterial activity, agar dilution MIC; format: cell-based; details: Staphylococcus aureus
# Procedure: as §1, §2
# Staph. epidermidis 3519 = assay: In vitro antibacterial activity, agar dilution MIC; format: cell-based; details: Staphylococcus epidermidis
# Procedure: as §1, §2
# M. luteus ATCC 9341 = assay: In vitro antibacterial activity, agar dilution MIC; format: cell-based; details: Micrococcus luteus, ATCC9341
# Procedure: as §1, §2
# [5] = tested on: Enter. aerogenes ATCC 13048; assay: In vitro antibacterial activity, agar dilution MIC; format: cell-based; details: Klebsiella aerogenes, ATCC13048
# Procedure: as §1, §2
# Escherichia coli Juhl = assay: In vitro antibacterial activity, agar dilution MIC; format: cell-based
# Procedure: as §1, §2
# [6] = tested on: Acinetob. calcoaceticus CMX 669; assay: In vitro antibacterial activity, agar dilution MIC; format: cell-based
# Procedure: as §1, §2
# Staph. aureus NCTC10649M = assay: In vitro antibacterial activity, agar dilution MIC; format: cell-based; details: Staphylococcus aureus
# Procedure: as §1, §2
# [7] = tested on: Staph. aureus 1775 Cipro. R.; assay: In vitro antibacterial activity, agar dilution MIC; format: cell-based; details: Staphylococcus aureus
# Procedure: as §1, §2
# P. aeruginosa 2862 = assay: In vitro antibacterial activity, agar dilution MIC; format: cell-based; details: Pseudomonas aeruginosa, 2862
# Procedure: as §1, §2
# Staph. aureus 642A = assay: In vitro antibacterial activity, agar dilution MIC; format: cell-based; details: Staphylococcus aureus
# Procedure: as §1, §2
# P. aeruginosa 5263 = assay: microbe, parasite or virus in culture; details: Pseudomonas aeruginosa
# Procedure: as §1, §2
# Strep. pyogenes EES61 = assay: In vitro antibacterial activity, agar dilution MIC; format: cell-based; details: Streptococcus pyogenes
# Procedure: as §1, §2
# [8] = tested on: Klebs. pneumoniae ATCC 8045; assay: In vitro antibacterial activity, agar dilution MIC; format: cell-based; details: Klebsiella pneumoniae, ATCC8045
# Procedure: as §1, §2
# Candida albicans CCH 442 = assay: In vitro antibacterial activity, agar dilution MIC; details: Candida albicans, CCH442
# Procedure: as §1, §2
# [9] = tested on: Strep. agalactiae CMX 508; assay: In vitro antibacterial activity, agar dilution MIC; format: cell-based; details: Streptococcus agalactiae, CMX508
# Procedure: as §1, §2
# E. coli H560 = assay: In vitro antibacterial activity, agar dilution MIC; format: cell-based; details: Escherichia coli
# Procedure: as §1, §2
# [10] = tested on: Nocardia asteroides ATCC 9970; assay: In vitro antibacterial activity, agar dilution MIC; format: cell-based; details: ATCC9970
# Procedure: as §1, §2
# P. aeruginosa A5007 = assay: In vitro antibacterial activity, agar dilution MIC; format: cell-based; details: Pseudomonas aeruginosa
# Procedure: as §1, §2
# P. aeruginosa BMH 10 = assay: In vitro antibacterial activity, agar dilution MIC; format: cell-based; details: Pseudomonas aeruginosa, BMH10
# Procedure: as §1, §2
# Myco. smegmatis ATCC 114 = assay: In vitro antibacterial activity, agar dilution MIC; format: cell-based; details: Mycolicibacterium smegmatis, ATCC114
# Procedure: as §1, §2
# [11] = Staph. aureus CMX 553, BHI agar dilution, 20-24 hours, read-out: MIC
# [12] = Providencia stuartii CMX 640, BHI agar dilution, 20-24 hours, read-out: MIC
# [13] = Klebs. pneumoniae ATCC 8045, BHI agar dilution, 20-24 hours, read-out: MIC
# [14] = Strep. agalactiae CMX 508, BHI agar dilution, 20-24 hours, read-out: MIC
# [15] = Nocardia asteroides ATCC 9970, BHI agar dilution, 20-24 hours, read-out: MIC
smiles,measurement,setting,value
"O=C(O)c1cn(C2CC2)c2cc(N3CCNCC3)c(F)cc2c1=O [Control, ciprofloxacin, reference compound]",MIC,P. aeruginosa K799/61,0.02 µg/mL
same,MIC,"[1]; Entero. faecium ATCC 8043, BHI agar dilution, 20-24 hours, read-out: MIC",0.78 µg/mL
same,MIC,Strep. bovis A5169; A5169,1.56 µg/mL
same,MIC,[2],0.39 µg/mL
same,MIC,E. coli SS,0.005 µg/mL
same,MIC,"[3]; Strep. pyogenes 930 CONST, BHI agar dilution, 20-24 hours, read-out: MIC",0.78 µg/mL
same,MIC,P. aeruginosa K799/WT; K799/WT,0.1 µg/mL
same,MIC,M. luteus ATCC 4698,1.56 µg/mL
same,MIC,Staph. aureus CMX 553; [11],0.78 µg/mL
same,MIC,Staph. aureus A5177; A5177,0.39 µg/mL
same,MIC,Pseudomonas cepacia 296I; 296I,3.1 µg/mL
same,MIC,Staph. aureus ATCC 6538P,0.05 µg/mL
same,MIC,[4]; [12],0.78 µg/mL
same,MIC,E. coli KNK 437,0.2 µg/mL
same,MIC,E. coli DC-2,0.2 µg/mL
same,MIC,Staph. aureus 5278; 5278,0.39 µg/mL
same,MIC,Staph. epidermidis 3519; 3519,0.39 µg/mL
same,MIC,M. luteus ATCC 9341,3.1 µg/mL
same,MIC,[5],0.05 µg/mL
same,MIC,Escherichia coli Juhl; Escherichia coli,0.05 µg/mL
same,MIC,[6],0.39 µg/mL
same,MIC,Staph. aureus NCTC10649M; NCTC10649M,0.39 µg/mL
same,MIC,[7],> 100 µg/mL
same,MIC,P. aeruginosa 2862,12.5 µg/mL
same,MIC,Staph. aureus 642A; 642A,0.39 µg/mL
same,MIC,P. aeruginosa 5263,12.5 µg/mL
same,MIC,Strep. pyogenes EES61; EES61,0.39 µg/mL
same,MIC,[8]; [13],0.01 µg/mL
same,MIC,Candida albicans CCH 442,> 100 µg/mL
same,MIC,[9]; [14],0.78 µg/mL
same,MIC,E. coli H560; H560,0.01 µg/mL
same,MIC,[10]; [15],25 µg/mL
same,MIC,P. aeruginosa A5007; A5007,0.2 µg/mL
same,MIC,P. aeruginosa BMH 10,0.1 µg/mL
same,MIC,Myco. smegmatis ATCC 114,1.56 µg/mL
"CC[C@H]1CN(c2c(F)cn3c(=O)c(C(=O)O)cc(C4CC4)c3c2C)C[C@H]1N (relative stereo) [Ex. 3, 8-(cis-3-amino-4-ethylpyrrolidin-1-yl)-1-cyclopropyl-7-fluoro-4H-9-methyl-4-oxo-quinolizine-3-carboxylic acid hydrochloride diastereomer A]",MIC,P. aeruginosa K799/61,0.02 µg/mL
same,MIC,[1],0.1 µg/mL
same,MIC,"Strep. bovis A5169; Strep. bovis A5169, BHI agar dilution, 20-24 hours, read-out: MIC",0.1 µg/mL
same,MIC,[2],0.05 µg/mL
same,MIC,"E. coli SS; E. coli SS, BHI agar dilution, 20-24 hours, read-out: MIC",0.002 µg/mL
same,MIC,[3]; 930CONST,0.05 µg/mL
same,MIC,"P. aeruginosa K799/WT; P. aeruginosa K799/WT, BHI agar dilution, 20-24 hours, read-out: MIC",0.39 µg/mL
same,MIC,M. luteus ATCC 4698,0.1 µg/mL
same,MIC,Staph. aureus CMX 553; [11],0.02 µg/mL
same,MIC,"Staph. aureus A5177; Staph. aureus A5177, BHI agar dilution, 20-24 hours, read-out: MIC",0.02 µg/mL
same,MIC,"Pseudomonas cepacia 296I; Pseudomonas cepacia 296I, BHI agar dilution, 20-24 hours, read-out: MIC",0.78 µg/mL
same,MIC,"Staph. aureus ATCC 6538P; Staph. aureus ATCC 6538P, BHI agar dilution, 20-24 hours, read-out: MIC",0.01 µg/mL
same,MIC,[4]; [12],0.78 µg/mL
same,MIC,"E. coli KNK 437; E. coli KNK 437, BHI agar dilution, 20-24 hours, read-out: MIC",0.1 µg/mL
same,MIC,"E. coli DC-2; E. coli DC-2, BHI agar dilution, 20-24 hours, read-out: MIC",0.2 µg/mL
same,MIC,"Staph. aureus 5278; Staph. aureus 5278, BHI agar dilution, 20-24 hours, read-out: MIC",0.02 µg/mL
same,MIC,"Staph. epidermidis 3519; Staph. epidermidis 3519, BHI agar dilution, 20-24 hours, read-out: MIC",0.02 µg/mL
same,MIC,M. luteus ATCC 9341,0.1 µg/mL
same,MIC,"[5]; Enter. aerogenes ATCC 13048, BHI agar dilution, 20-24 hours, read-out: MIC",0.05 µg/mL
same,MIC,"Escherichia coli Juhl; Escherichia coli Juhl, BHI agar dilution, 20-24 hours, read-out: MIC",0.02 µg/mL
same,MIC,"[6]; Acinetob. calcoaceticus CMX 669, BHI agar dilution, 20-24 hours, read-out: MIC",0.02 µg/mL
same,MIC,"Staph. aureus NCTC10649M; Staph. aureus NCTC10649M, BHI agar dilution, 20-24 hours, read-out: MIC",0.01 µg/mL
same,MIC,"[7]; Staph. aureus 1775 Cipro. R., BHI agar dilution, 20-24 hours, read-out: MIC",0.78 µg/mL
same,MIC,P. aeruginosa 2862,3.1 µg/mL
same,MIC,"Staph. aureus 642A; Staph. aureus 642A, BHI agar dilution, 20-24 hours, read-out: MIC",0.02 µg/mL
same,MIC,P. aeruginosa 5263,3.1 µg/mL
same,MIC,"Strep. pyogenes EES61; Strep. pyogenes EES61, BHI agar dilution, 20-24 hours, read-out: MIC",0.1 µg/mL
same,MIC,[8]; [13],0.02 µg/mL
same,MIC,Candida albicans CCH 442,> 100 µg/mL
same,MIC,[9]; [14],0.1 µg/mL
same,MIC,"E. coli H560; E. coli H560, BHI agar dilution, 20-24 hours, read-out: MIC",0.01 µg/mL
same,MIC,[10]; [15],0.39 µg/mL
same,MIC,"P. aeruginosa A5007; P. aeruginosa A5007, BHI agar dilution, 20-24 hours, read-out: MIC",0.39 µg/mL
same,MIC,"P. aeruginosa BMH 10; P. aeruginosa BMH 10, BHI agar dilution, 20-24 hours, read-out: MIC",0.39 µg/mL
same,MIC,"Myco. smegmatis ATCC 114; Myco. smegmatis ATCC 114, BHI agar dilution, 20-24 hours, read-out: MIC",0.02 µg/mL
"Cc1c(N2C[C@@H]3CCCN[C@@H]3C2)c(F)cn2c(=O)c(C(=O)O)cc(C3CC3)c12 [Ex. 1, 1-cyclopropyl-8-(S,S-2,8-diaza-8-bicyclo[4.3.0]-nonyl)-7-fluoro-4H-9-methyl-4-oxo-quinolizine-3-carboxylic acid hydrochloride]",MIC,P. aeruginosa K799/61,0.02 µg/mL
same,MIC,[1],0.1 µg/mL
same,MIC,Strep. bovis A5169; A5169,0.05 µg/mL
same,MIC,[2],0.02 µg/mL
same,MIC,E. coli SS,0.002 µg/mL
same,MIC,[3]; 930CONST,0.05 µg/mL
same,MIC,P. aeruginosa K799/WT; K799/WT,0.2 µg/mL
same,MIC,M. luteus ATCC 4698,0.1 µg/mL
same,MIC,Staph. aureus CMX 553,0.05 µg/mL
same,MIC,Staph. aureus A5177; A5177,0.02 µg/mL
same,MIC,Pseudomonas cepacia 296I; 296I,0.78 µg/mL
same,MIC,Staph. aureus ATCC 6538P,0.01 µg/mL
same,MIC,[4]; Providencia stuartii,0.39 µg/mL
same,MIC,E. coli KNK 437,0.05 µg/mL
same,MIC,E. coli DC-2,0.05 µg/mL
same,MIC,Staph. aureus 5278; 5278,0.01 µg/mL
same,MIC,Staph. epidermidis 3519; 3519,0.02 µg/mL
same,MIC,M. luteus ATCC 9341,0.1 µg/mL
same,MIC,[5],0.02 µg/mL
same,MIC,Escherichia coli Juhl; Escherichia coli,0.005 µg/mL
same,MIC,[6],0.02 µg/mL
same,MIC,Staph. aureus NCTC10649M; NCTC10649M,0.01 µg/mL
same,MIC,[7],0.39 µg/mL
same,MIC,P. aeruginosa 2862,3.1 µg/mL
same,MIC,Staph. aureus 642A; 642A,0.02 µg/mL
same,MIC,P. aeruginosa 5263,3.1 µg/mL
same,MIC,Strep. pyogenes EES61; EES61,0.05 µg/mL
same,MIC,[8],0.01 µg/mL
same,MIC,Candida albicans CCH 442,> 100 µg/mL
same,MIC,[9],0.05 µg/mL
same,MIC,E. coli H560; H560,0.005 µg/mL
same,MIC,[10]; Nocardia asteroides,3.1 µg/mL
same,MIC,P. aeruginosa A5007; A5007,0.2 µg/mL
same,MIC,P. aeruginosa BMH 10,0.1 µg/mL
same,MIC,Myco. smegmatis ATCC 114,0.02 µg/mL
